Reference: patent US20240109881A1, “Heteroaryl Compounds as Ligand Directed Degraders of IRAK4” (Bristol-Myers Squibb Company, priority 2022, published 2024)

Target: T1, IRAK4 (Homo sapiens, UniProt Q9NWZ3)
T1 construct: endogenous in cells; host or cells: THP-1 cells
T1 sequence (Q9NWZ3 1-460): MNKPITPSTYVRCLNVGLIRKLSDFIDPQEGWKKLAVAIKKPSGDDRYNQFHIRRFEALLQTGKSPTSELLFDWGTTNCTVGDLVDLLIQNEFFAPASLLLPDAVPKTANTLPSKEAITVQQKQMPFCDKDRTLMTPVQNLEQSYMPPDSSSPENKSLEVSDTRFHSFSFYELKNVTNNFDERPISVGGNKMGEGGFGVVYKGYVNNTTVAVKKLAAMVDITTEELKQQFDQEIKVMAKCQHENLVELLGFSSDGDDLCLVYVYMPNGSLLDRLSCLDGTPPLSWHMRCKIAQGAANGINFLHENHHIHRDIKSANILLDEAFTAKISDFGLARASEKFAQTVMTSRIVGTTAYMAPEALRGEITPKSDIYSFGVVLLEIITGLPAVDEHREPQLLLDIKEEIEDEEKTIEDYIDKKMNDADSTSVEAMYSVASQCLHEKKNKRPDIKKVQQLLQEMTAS
Assay: LVL THP1 HTRF (THP1 Homogeneous Time Resolved Fluorescence)
Assay type: cell-based
Details: THP1 cells, 18 h incubation with compound; for DC50: read-out: LVL THP1 HTRF EC50
Method in brief: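 THP-1 cells in phenol red-free RPMI with 10% FBS were dosed with compound (20 nL in DMSO) for 18 h at 37° C. After 2 h lysis, IRAK4 was detected with anti-IRAK4-d2/anti-IRAK4-K HTRF antibodies for 18 h at room temperature and read at 665/615 nm; a parallel CTG plate was run.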

LVL THP1 HTRF YMIN [%] | DC50 [µM] | Compound
7.1 | 0.0221 | C[C@H](C#N)Nc1cc(-n2ncc3cc(C#N)cnc32)ncc1-n1cc([C@H]2CC[C@H](CCN3CCC(c4ccc(N5CCC(=O)NC5=O)c(Cl)c4)CC3)CC2)nn1 [P-342]
87.0 | 0.103 | C[C@H](C#N)Nc1cc(-n2ncc3cc(C#N)cnc32)ncc1-n1cc([C@H]2CC[C@H](CCN3CCC(c4ccc(NC5CCC(=O)NC5=O)cc4)CC3)CC2)nn1 (stereo partly shown) [P-343]
8.9 | 0.0912 | C[C@H](C#N)Nc1cc(-n2ncc3cc(C#N)cnc32)ncc1-n1cc([C@H]2CC[C@H](CCN3CCC(c4cn(C5CCC(=O)NC5=O)nn4)CC3)CC2)nn1 (stereo partly shown) [P-344]
87.0 | 1 | C[C@H](C#N)Nc1cc(-n2ncc3cc(C#N)cnc32)ncc1-n1cc([C@H]2CC[C@H](CCN3CCC(c4ccc(N5CCC(=O)NC5=O)cn4)CC3)CC2)nn1 [P-345]
17.5 | 0.0928 | C[C@H](C#N)Nc1cc(-n2ncc3cc(C#N)cnc32)ncc1-n1cc([C@H]2CC[C@H](CCN3CCC(n4cc(C5CCC(=O)NC5=O)cn4)CC3)CC2)nn1 (stereo partly shown) [P-346]
13.1 | 0.0949 | C[C@H](C#N)Nc1cc(-n2ncc3cc(C#N)cnc32)ncc1-n1cc([C@H]2CC[C@H](CCN3CCC(n4cc(NC5CCC(=O)NC5=O)cn4)CC3)CC2)nn1 (stereo partly shown) [P-348]
14.6 | 0.0297 | C[C@H](C#N)Nc1cc(-n2ncc3cc(C#N)cnc32)ncc1-n1cc([C@H]2CC[C@H](CCN3CCC(n4ccc(C5(F)CCC(=O)NC5=O)cc4=O)CC3)CC2)nn1 (stereo partly shown) [P-349]
3.7 | 0.0022 | C[C@H](C#N)Nc1cc(-n2ncc3cc(C#N)cnc32)ncc1-n1cc([C@H]2CC[C@H](CCN3CCC(n4ccc(C5CCC(=O)NC5=O)cc4=O)CC3)CC2)nn1 (stereo partly shown) [P-350]
69.0 | – | C[C@H](C#N)Nc1cc(-n2ncc3cc(C#N)cnc32)ncc1-n1cc([C@H]2CC[C@H](CCN3CCC(n4nc(N5CCC(=O)NC5=O)c5ccccc54)CC3)CC2)nn1 [P-351]
4.0 | 0.0137 | C[C@H](C#N)Nc1cc(-n2ncc3cc(C#N)cnc32)ncc1-n1cc([C@H]2CC[C@H](CCN3CCCN(c4ccc(C5CCC(=O)NC5=O)cc4)CC3)CC2)nn1 (stereo partly shown) [P-354]
58.0 | 0.327 | C[C@H](C#N)Nc1cc(-n2ncc3cc(C#N)cnc32)ncc1-n1cc([C@H]2CC[C@H](CCN3CCCN(c4ccc(N5CCC(=O)NC5=O)cc4)CC3)CC2)nn1 [P-355]
8.6 | 0.0406 | C[C@H](C#N)Nc1cc(-n2ncc3cc(C#N)cnc32)ncc1-n1cc([C@H]2CC[C@H](CCN3CCN(c4ccc(N5CCC(=O)NC5=O)cc4)[C@@H](C)C3)CC2)nn1 [P-356]
26.7 | 0.179 | C[C@H](C#N)Nc1cc(-n2ncc3cc(C#N)cnc32)ncc1-n1cc([C@H]2CC[C@H](CCN3CCN(c4ccc(N5CCC(=O)NC5=O)cn4)[C@@H](C)C3)CC2)nn1 [P-357]
0.6 | 0.0048 | C[C@H](C#N)Nc1cc(-n2ncc3cc(C#N)cnc32)ncc1-n1cc([C@H]2CC[C@H](CCN3CCN(c4ccc(N5CCC(=O)NC5=O)cc4)[C@H](C)C3)CC2)nn1 [P-358]
−1.9 | 0.0025 | C[C@H](C#N)Nc1cc(-n2ncc3cc(C#N)cnc32)ncc1-n1cc([C@H]2CC[C@H](CCN3CCN(c4ccc(N5CCC(=O)NC5=O)cn4)[C@H](C)C3)CC2)nn1 [P-359]
4.5 | 0.0276 | Cc1cc(N2CCC(=O)NC2=O)ccc1N1CCN(CC[C@H]2CC[C@H](c3cn(-c4cnc(-n5ncc6cc(C#N)cnc65)cc4N[C@H](C)C#N)nn3)CC2)CC1 [P-360]
1.2 | 0.005 | C[C@H](C#N)Nc1cc(-n2ncc3cc(C#N)cnc32)ncc1-n1cc([C@H]2CC[C@H](CCN3CCN(c4cccc5c(N6CCC(=O)NC6=O)cncc45)CC3)CC2)nn1 [P-361]
14.9 | 0.238 | C[C@H](C#N)Nc1cc(-n2ncc3cc(C#N)cnc32)ncc1-n1cc([C@H]2CC[C@H](CCN3CCN(c4cccc5c(N6CCC(=O)NC6=O)nn(C)c45)CC3)CC2)nn1 [P-362]
5.0 | 0.0076 | Cc1cc(N2CCN(CC[C@H]3CC[C@H](c4cn(-c5cnc(-n6ncc7cc(C#N)cnc76)cc5N[C@H](C)C#N)nn4)CC3)CC2)ccc1N1CCC(=O)NC1=O [P-363]

LVL THP1 HTRF YMIN [%] | DC50 [µM] | Compound
3.1 | 0.0018 | C[C@H](C#N)Nc1cc(-n2ncc3cc(C#N)cnc32)ncc1-n1cc([C@H]2CC[C@H](CCN3CCN(c4ccc(N5CCC(=O)NC5=O)c(Cl)c4)CC3)CC2)nn1 [P-364]
2.0 | 0.0023 | C[C@H](C#N)Nc1cc(-n2ncc3cc(C#N)cnc32)ncc1-n1cc([C@H]2CC[C@H](CCN3CCN(c4ccc(N5CCC(=O)NC5=O)c(F)c4)CC3)CC2)nn1 [P-365]
2.0 | 0.01 | C[C@H](C#N)Nc1cc(-n2ncc3cc(C#N)cnc32)ncc1-n1cc([C@H]2CC[C@H](CCN3CCN(c4ccc(N5CCC(=O)NC5=O)cc4)CC3)CC2)nn1 [P-366]
7.9 | 0.116 | C[C@H](C#N)Nc1cc(-n2ncc3cc(C#N)cnc32)ncc1-n1cc([C@H]2CC[C@H](CCN3CCN(c4ccc(N5CCC(=O)NC5=O)cc4F)CC3)CC2)nn1 [P-367]
2.9 | 0.0044 | C[C@H](C#N)Nc1cc(-n2ncc3cc(C#N)cnc32)ncc1-n1cc([C@H]2CC[C@H](CCN3CCN(c4ccc(NC5CCC(=O)NC5=O)cc4)CC3)CC2)nn1 (stereo partly shown) [P-368]
3.0 | 0.0022 | C[C@H](C#N)Nc1cc(-n2ncc3cc(C#N)cnc32)ncc1-n1cc([C@H]2CC[C@H](CCN3CCN(c4ccc5c(N6CCC(=O)NC6=O)nn(C)c5c4)CC3)CC2)nn1 [P-369]
1.2 | 0.0305 | C[C@H](C#N)Nc1cc(-n2ncc3cc(C#N)cnc32)ncc1-n1cc([C@H]2CC[C@H](CCN3CCN(c4ccc(N5CCC(=O)NC5=O)nc4)CC3)CC2)nn1 [P-370]
4.1 | 0.0087 | C[C@H](C#N)Nc1cc(-n2ncc3cc(C#N)cnc32)ncc1-n1cc([C@H]2CC[C@H](CCN3CCN(c4ccc(N5CCC(=O)NC5=O)cn4)CC3)CC2)nn1 [P-371]
40.1 | 0.235 | C[C@H](C#N)Nc1cc(-n2ncc3cc(C#N)cnc32)ncc1-n1cc([C@H]2CC[C@H](CCN3CCN(c4ncc(N5CCC(=O)NC5=O)s4)CC3)CC2)nn1 [P-372]
2.5 | 0.0065 | C[C@H](C#N)Nc1cc(-n2ncc3cc(Cl)cnc32)ncc1-n1cc([C@H]2CC[C@H](CCN3CCN(c4ccc(C5CCC(=O)NC5=O)cc4)CC3)CC2)nn1 (stereo partly shown) [P-375]
7.2 | 0.0303 | C[C@H](C#N)Nc1nc(-n2ncc3cc(C#N)cnc32)ncc1C(=O)N[C@H]1CC[C@H](CCN2CCN(c3ccc(C4CCC(=O)NC4=O)cc3)CC2)CC1 (stereo partly shown) [P-376]
3.4 | 0.0083 | C[C@H](C#N)Nc1nc(-n2ncc3cc(C#N)cnc32)ncc1-n1cc([C@H]2CC[C@H](CCN3CCN(c4ccc(C5CCC(=O)NC5=O)cc4)CC3)CC2)nn1 (stereo partly shown) [P-377]
2.2 | 0.013 | C[C@H](C#N)Nc1cc(Nc2ncc(C#N)cc2Cl)ncc1-n1cc([C@H]2CC[C@H](CCN3CCN(c4ccc(N5CCC(=O)NC5=O)cc4)[C@H](C)C3)CC2)nn1 [P-378]
1.8 | 0.004 | C[C@H](C#N)Nc1cc(Nc2ncc(C#N)cc2Cl)ncc1-n1cc([C@H]2CC[C@H](CCN3CCN(c4ccc(C5CCC(=O)NC5=O)cc4)CC3)CC2)nn1 (stereo partly shown) [P-379]
12.1 | 0.0894 | C[C@H](C#N)Nc1cc(Nc2ncc(Cl)cc2Cl)ncc1-n1cc([C@H]2CC[C@H](CCN3CCN(c4ccc(C5CCC(=O)NC5=O)cc4)CC3)CC2)nn1 (stereo partly shown) [P-380]
2.1 | 0.0083 | C[C@H](C#N)Nc1cc(Nc2ncc(C#N)cc2F)ncc1-n1cc([C@H]2CC[C@H](CCN3CCN(c4ccc(C5CCC(=O)NC5=O)cc4)CC3)CC2)nn1 (stereo partly shown) [P-381]
4.1 | 0.028 | C[C@H](C#N)Nc1cc(Nc2ncc(F)cc2F)ncc1-n1cc([C@H]2CC[C@H](CCN3CCN(c4ccc(C5CCC(=O)NC5=O)cc4)CC3)CC2)nn1 (stereo partly shown) [P-382]
5.6 | 0.0313 | C[C@H](C#N)Nc1cc(Nc2ncncc2F)ncc1-n1cc([C@H]2CC[C@H](CCN3CCN(c4ccc(C5CCC(=O)NC5=O)cc4)CC3)CC2)nn1 (stereo partly shown) [P-383]
6.5 | 0.0454 | C[C@H](C#N)Nc1cc(Nc2ncc(C#N)cc2Cl)ncc1-n1cc([C@H]2CC[C@H](CCN3CCN(c4ccc(N5CCC(=O)NC5=O)cc4)CC3)CC2)nn1 [P-384]

Compound | LVL THP1 HTRF YMIN [%] | DC50 [µM]
C[C@H](C#N)Nc1cc(-n2ncc3cc(C#N)cnc32)ncc1-n1cc([C@H]2CC[C@H](CCN3CCC(O)(c4ccc(C5CCC(=O)NC5=O)cc4)CC3)CC2)nn1 (stereo partly shown) [P-352] | 2.1 | 0.0038
C[C@H](C#N)Nc1cc(-n2ncc3cc(C#N)cnc32)ncc1-n1cc([C@H]2CC[C@H](CCN3CCC(O)(c4ccc(N5CCC(=O)NC5=O)cc4)CC3)CC2)nn1 [P-353] | 88.5 | 1
